In patent US20230330027A1, “PHARMACEUTICAL PREPARATION” (MERCK PATENT GMBH, priority 2020, published 2023):

Columns and labels:
[1] = Particle size distribution by laser diffraction (Malvern Mastersizer 2000); type: physicochemical; settings: no unit in Table 4; d values in micrometers, volume distribution
Procedure: The particle size distribution of 8-(1,3-Dimethyl-1H-pyrazol-4-yl)-1-(Sa)-(3-fluoro-5-methoxy-pyridin-4-yl)-7-methoxy-3-methyl-1,3-dihydro-imidazo[4,5-c]quinolin-2-one is measured by laser diffraction on a Malvern Mastersizer 2000 (wet method using Hydro 2000S; sample amount of 100 mg dispersed in 5 ml silicone oil; stirrer speed 2000 rpm, no sonication, measuring time of 7.5 s; obscuration of 10-15%). The d values refer to the particle size distribution in micrometers […] whereby the dl 0 value refers to the particle diameter in micrometers at which 10 percent of the volume distribution of the particles are smaller than such value, the d50 value refers to the particle diameter in micrometers at which 50 percent of the volume distribution of the particles are smaller than such value and the d90 value refers to the particle diameter in micrometers at which 90 percent of the volume distribution of the particles are smaller than such value.

[2] = Thermodynamic stability of anhydrous polymorphic forms; type: physicochemical; settings: among anhydrous Forms A1, A2, A3
[3] = molecular target: phosphodiesterase (PDE) 2A1 (Homo sapiens, UniProt O00408); assay: Inhibition of PDE2A1; type: biochemical; settings: compared to the (Ra) atropisomer and the unseparated compound
Sequence of phosphodiesterase (PDE) 2A1 (O00408 1-920 isoform O00408-2): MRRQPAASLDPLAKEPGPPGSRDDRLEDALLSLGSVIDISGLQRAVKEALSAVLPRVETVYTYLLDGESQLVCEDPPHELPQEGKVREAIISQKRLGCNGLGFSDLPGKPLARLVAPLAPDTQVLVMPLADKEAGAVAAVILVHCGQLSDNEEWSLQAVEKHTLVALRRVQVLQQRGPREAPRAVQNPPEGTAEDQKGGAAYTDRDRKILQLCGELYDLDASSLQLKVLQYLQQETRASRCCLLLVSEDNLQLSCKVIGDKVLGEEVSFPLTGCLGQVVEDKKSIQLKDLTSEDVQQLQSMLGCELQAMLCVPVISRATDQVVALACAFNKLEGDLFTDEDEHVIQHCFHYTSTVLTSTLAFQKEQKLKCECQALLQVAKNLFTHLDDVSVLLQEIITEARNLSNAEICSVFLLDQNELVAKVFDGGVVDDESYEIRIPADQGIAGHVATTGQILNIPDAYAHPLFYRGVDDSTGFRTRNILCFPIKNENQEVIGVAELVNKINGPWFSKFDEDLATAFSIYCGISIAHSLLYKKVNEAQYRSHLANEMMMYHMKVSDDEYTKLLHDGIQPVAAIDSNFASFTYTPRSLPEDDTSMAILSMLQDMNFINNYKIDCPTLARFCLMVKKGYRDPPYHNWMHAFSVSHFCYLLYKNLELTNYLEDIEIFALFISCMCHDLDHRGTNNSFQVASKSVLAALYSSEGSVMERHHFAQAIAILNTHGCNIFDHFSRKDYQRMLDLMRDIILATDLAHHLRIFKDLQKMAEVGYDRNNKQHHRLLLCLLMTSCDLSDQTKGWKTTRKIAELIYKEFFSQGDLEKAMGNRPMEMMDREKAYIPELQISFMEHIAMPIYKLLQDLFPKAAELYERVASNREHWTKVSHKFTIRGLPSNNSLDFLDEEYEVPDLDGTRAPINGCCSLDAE

[4] = Selectivity compared to the other atropisomer and the mixture; settings: compared to the (Ra) atropisomer and the unseparated compound
ATM pCHK2 pathway = assay: Inhibition of the ATM pCHK2 pathway; type: cell-based; settings: compared to the (Ra) atropisomer and the unseparated compound
PDE4A1A = PDE4A1A (Homo sapiens, UniProt P27815); assay: Inhibition of PDE4A1A; type: biochemical; settings: compared to the (Ra) atropisomer and the unseparated compound
Sequence of PDE4A1A (P27815 1-647 isoform P27815-4): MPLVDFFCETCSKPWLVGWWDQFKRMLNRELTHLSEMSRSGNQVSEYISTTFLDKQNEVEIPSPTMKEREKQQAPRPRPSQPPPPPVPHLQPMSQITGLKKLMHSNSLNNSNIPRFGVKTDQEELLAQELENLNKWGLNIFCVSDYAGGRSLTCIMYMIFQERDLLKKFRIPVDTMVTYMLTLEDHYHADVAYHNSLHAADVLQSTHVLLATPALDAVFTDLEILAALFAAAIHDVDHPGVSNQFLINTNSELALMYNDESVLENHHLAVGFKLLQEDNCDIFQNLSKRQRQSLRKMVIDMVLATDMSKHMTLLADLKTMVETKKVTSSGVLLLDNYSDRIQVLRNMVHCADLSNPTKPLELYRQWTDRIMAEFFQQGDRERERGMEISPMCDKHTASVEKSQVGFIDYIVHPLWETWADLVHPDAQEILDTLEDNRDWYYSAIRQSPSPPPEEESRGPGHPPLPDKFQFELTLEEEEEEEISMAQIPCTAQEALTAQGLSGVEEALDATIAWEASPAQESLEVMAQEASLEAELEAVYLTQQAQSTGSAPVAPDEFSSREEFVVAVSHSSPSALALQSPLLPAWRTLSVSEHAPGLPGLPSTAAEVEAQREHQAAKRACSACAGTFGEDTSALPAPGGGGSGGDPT

PDE4D2 = PDE4D2 (Homo sapiens, UniProt Q08499); assay: Inhibition of PDE4D2; type: biochemical; settings: compared to the (Ra) atropisomer and the unseparated compound
Sequence of PDE4D2 (Q08499 303-809 limits assumed): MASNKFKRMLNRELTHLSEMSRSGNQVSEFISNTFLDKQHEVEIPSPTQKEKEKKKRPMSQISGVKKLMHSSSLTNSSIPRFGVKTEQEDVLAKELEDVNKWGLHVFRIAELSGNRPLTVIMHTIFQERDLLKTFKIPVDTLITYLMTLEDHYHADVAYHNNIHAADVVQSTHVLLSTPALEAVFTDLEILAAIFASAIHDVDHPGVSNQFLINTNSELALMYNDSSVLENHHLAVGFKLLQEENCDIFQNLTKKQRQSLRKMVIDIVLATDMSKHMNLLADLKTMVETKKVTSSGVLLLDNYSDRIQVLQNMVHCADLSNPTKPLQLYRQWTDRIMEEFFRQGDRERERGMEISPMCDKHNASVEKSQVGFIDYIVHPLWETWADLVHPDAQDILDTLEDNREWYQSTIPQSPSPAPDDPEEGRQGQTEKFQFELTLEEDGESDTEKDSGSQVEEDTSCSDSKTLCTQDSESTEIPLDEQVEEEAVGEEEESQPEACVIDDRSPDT

Microsomal clearance = type: in vitro ADME; settings: compared to the (Ra) atropisomer and the unseparated compound

Dv10 [1] [µm]	Dv50 [1] [µm]	Dv90 [1] [µm]	Inhibition of phosphodiesterase (PDE) 2A1 [3]	Inhibition of PDE4A1A (PDE4A1A)	Inhibition of PDE4D2 (PDE4D2)	Microsomal clearance values (Microsomal clearance)	Structure (SMILES)	Thermodynamic stability of the solid form [2]	Selectivity [4]	Inhibition of the ATM pCHK2 pathway (ATM pCHK2 pathway)
19	64	202	–	–	–	–	COc1cc2ncc3c(c2cc1-c1cn(C)nc1C)n(-c1c(F)cncc1OC)c(=O)n3C (atropisomer, axis not shown; (Sa)) [Compound 1 Anhydrous Form A2 OPT, 8-(1,3-Dimethyl-1H-pyrazol-4-yl)-1-(Sa)-(3-fluoro-5-methoxy-pyridin-4-yl)-7-methoxy-3-methyl-1,3-dihydro-imidazo[4,5-c]quinolin-2-one]	–	–	–
9	63	599	–	–	–	–	COc1cc2ncc3c(c2cc1-c1cn(C)nc1C)n(-c1c(F)cncc1OC)c(=O)n3C (atropisomer, axis not shown; (Sa)) [Compound 1 Anhydrous Form A2, 8-(1,3-Dimethyl-1H-pyrazol-4-yl)-1-(Sa)-(3-fluoro-5-methoxy-pyridin-4-yl)-7-methoxy-3-methyl-1,3-dihydro-imidazo[4,5-c]quinolin-2-one]	thermodynamically most stable anhydrous form	–	–
–	–	–	lowest inhibition	lowest inhibition	lowest inhibition	best microsomal clearance values	COc1cc2ncc3c(c2cc1-c1cn(C)nc1C)n(-c1c(F)cncc1OC)c(=O)n3C (atropisomer, axis not shown; (Sa)) [Compound 1, 8-(1,3-Dimethyl-1H-pyrazol-4-yl)-1-(Sa)-(3-fluoro-5-methoxy-pyridin-4-yl)-7-methoxy-3-methyl-1,3-dihydro-imidazo[4,5-c]quinolin-2-one]	–	better selectivity	at lower concentrations
